From patent US8058475B2, “Substituted cyclohexylmethyl compounds” (Gruenenthal GmbH, priority 2005, dated 2011)
Structures can show the parent of a compound that is named as a salt. Where two headings read alike, the source gives them in different places.

Legend:
human μ-opiate receptor = human μ-opiate receptor (Homo sapiens, UniProt P35372); assay: Affinity for the human μ-opiate receptor ([3H]-naloxone displacement, SPA, CHO-K1 membrane preparation); format: binding; settings: for inhibition at 1 µM: read-out: μ-Opioid receptor, % inhibition [1 μM]; for Ki: read-out: μ-Opioid receptor, Ki
human μ-opiate receptor, sequence (P35372 whole entry): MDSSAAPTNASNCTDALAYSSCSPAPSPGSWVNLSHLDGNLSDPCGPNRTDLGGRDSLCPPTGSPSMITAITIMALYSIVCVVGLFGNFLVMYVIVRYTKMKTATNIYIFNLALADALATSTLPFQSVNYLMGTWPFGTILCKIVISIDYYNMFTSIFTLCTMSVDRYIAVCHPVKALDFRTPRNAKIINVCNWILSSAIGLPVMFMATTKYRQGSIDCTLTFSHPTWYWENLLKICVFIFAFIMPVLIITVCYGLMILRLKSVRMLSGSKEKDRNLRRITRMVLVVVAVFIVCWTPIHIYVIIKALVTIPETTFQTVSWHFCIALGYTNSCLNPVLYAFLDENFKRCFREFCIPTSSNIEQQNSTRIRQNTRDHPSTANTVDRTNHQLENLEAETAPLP

[1] = target: T1, Noradrenaline (NA) reuptake (Rattus norvegicus, UniProt Q63380); assay: Noradrenaline (NA) reuptake inhibition in rat brain synaptosomes (hypothalamus, P2 fraction); format: biochemical
T1 construct: synaptosomes are freshly isolated from areas of rat brain; from tissue; host or cells: rat hypothalamus synaptosomes (P2 fraction)
T1 sequence (Q63380 1-617): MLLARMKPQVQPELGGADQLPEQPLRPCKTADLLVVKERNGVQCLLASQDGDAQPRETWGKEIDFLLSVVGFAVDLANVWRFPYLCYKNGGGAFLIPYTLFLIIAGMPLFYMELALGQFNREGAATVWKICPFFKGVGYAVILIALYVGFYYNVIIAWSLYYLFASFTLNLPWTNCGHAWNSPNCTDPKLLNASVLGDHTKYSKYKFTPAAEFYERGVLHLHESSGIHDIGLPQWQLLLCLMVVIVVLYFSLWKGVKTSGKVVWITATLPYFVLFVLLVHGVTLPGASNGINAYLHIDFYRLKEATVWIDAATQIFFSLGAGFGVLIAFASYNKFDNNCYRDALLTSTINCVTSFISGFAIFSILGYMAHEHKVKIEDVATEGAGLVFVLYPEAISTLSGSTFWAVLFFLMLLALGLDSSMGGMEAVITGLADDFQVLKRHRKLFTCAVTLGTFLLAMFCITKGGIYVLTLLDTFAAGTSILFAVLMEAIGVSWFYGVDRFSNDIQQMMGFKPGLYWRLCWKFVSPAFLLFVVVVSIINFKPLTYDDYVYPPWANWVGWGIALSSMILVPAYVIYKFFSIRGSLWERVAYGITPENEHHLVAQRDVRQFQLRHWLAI
Excerpt: (§1) Noradrenaline (NA) and Serotonin (5HT) Reuptake Inhibition
(§2) In order to be able to carry out these studies in vitro, synaptosomes are freshly isolated from areas of rat brain. A so-called “P2” fraction prepared by the method of Gray and Whittaker (E. G. Gray and V. P. Whittaker (1962) J. Anat. 76, 79-88) is used in each case. For the NA uptake, these vesicular particles are isolated from the hypothalamus of male rat brains.
(§3) A detailed description of the method will be found in the literature (M. Ch. Frink, H. H. Hennies, W. Englberger, M. Haurand and B. Wilffert (1996) Arzneim.-Forsch./Drug Res. 46 (III), 11, 1029-1036).

Serotonin (5HT) reuptake = target: T2, Serotonin (5HT) reuptake (Rattus norvegicus, UniProt P31652); assay: Serotonin (5HT) reuptake inhibition in rat brain synaptosomes (P2 fraction); format: biochemical; settings: for inhibition at 10 µM: read-out: Serotonin reuptake, % inhibition [10 μM]
T2 construct: synaptosomes are freshly isolated from areas of rat brain; from tissue; host or cells: rat brain synaptosomes (P2 fraction)
T2 sequence (P31652 whole entry): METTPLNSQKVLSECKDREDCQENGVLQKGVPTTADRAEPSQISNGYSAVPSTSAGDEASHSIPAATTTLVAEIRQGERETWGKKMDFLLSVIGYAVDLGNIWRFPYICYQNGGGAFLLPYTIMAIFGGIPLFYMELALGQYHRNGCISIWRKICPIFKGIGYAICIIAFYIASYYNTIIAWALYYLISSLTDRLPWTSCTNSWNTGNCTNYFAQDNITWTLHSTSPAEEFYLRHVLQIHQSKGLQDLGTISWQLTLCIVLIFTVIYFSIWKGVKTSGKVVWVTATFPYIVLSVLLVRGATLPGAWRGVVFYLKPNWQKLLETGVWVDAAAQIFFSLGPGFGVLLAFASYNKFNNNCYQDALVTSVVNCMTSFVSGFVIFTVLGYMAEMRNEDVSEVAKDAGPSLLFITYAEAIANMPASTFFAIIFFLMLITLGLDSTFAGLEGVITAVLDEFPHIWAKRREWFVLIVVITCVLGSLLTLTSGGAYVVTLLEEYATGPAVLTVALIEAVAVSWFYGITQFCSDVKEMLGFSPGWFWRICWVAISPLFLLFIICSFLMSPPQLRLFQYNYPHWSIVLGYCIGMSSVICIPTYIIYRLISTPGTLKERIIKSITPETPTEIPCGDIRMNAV
Excerpt: as §1, §2, §3

[2] = 1 μM test substance, inhibition of specific [3H]-naloxone binding
[3] = read-out: NA reuptake, % inhibition [10 μM]
[4] = read-out: Na reuptake, % inhibition [10 μM]

Row | SMILES | inhibition at 1 µM (human μ-opiate receptor; [2]) [%] | Ki (human μ-opiate receptor) [µM] | Ki [1] [µM] | inhibition at 10 µM [1, 3] [%] | Ki (Serotonin (5HT) reuptake) [µM] | inhibition at 10 µM (Serotonin (5HT) reuptake) [%] | inhibition at 1 µM (human μ-opiate receptor) [%] | inhibition at 10 µM [1, 4] [%] | inhibition at 1 µM (human μ-opiate receptor; 1 μM, sulfonamides (Table 17)) [%] | Ki (human μ-opiate receptor; sulfonamides (Table 17)) [µM]
1 | CN(C)C(c1ccccc1)C1CCC(NC(=O)Nc2cccc3ccccc23)CC1 (stereo not shown) [compound 73, 1-(4-((dimethylamino)(phenyl)methyl)cyclohexyl)-3-(naphthalen-1-yl)urea] | 96 | 0.046 | 0.18 | 94 | 0.061 | 90 | – | – | – | –
2 | CN(C)C(c1ccccc1)C1CCC(NC(=O)Nc2ccc(F)cc2F)CC1 (stereo not shown) [compound 74, 1-(2,4-difluorophenyl)-3-(4-((dimethylamino)(phenyl)methyl)cyclohexyl)urea hydrochloride] | 88 | 0.16 | 0.22 | 93 | 0.12 | 86 | – | – | – | –
3 | CN(C)C(c1ccccc1)C1CCC(NC(=O)Nc2cccc(C(F)(F)F)c2)CC1 (stereo not shown) [compound 75, 1-(4-((dimethylamino)(phenyl)methyl)cyclohexyl)-3-(3-(trifluoromethyl)-phenyl)urea hydrochloride] | 88 | 0.098 | 0.55 | 88 | 0.013 | 80 | – | – | – | –
4 | CN(C)C(c1ccccc1)C1CCC(NC(=O)Nc2ccccc2[N+](=O)[O-])CC1 (stereo not shown) [compound 76, 1-(4-((dimethylamino)(phenyl)methyl)cyclohexyl)-3-(2-nitrophenyl)urea hydrochloride] | 61 | – | – | 100 | – | 84 | – | – | – | –
5 | CN(C)C(c1ccccc1)C1CCC(NC(=O)Nc2cccc(Br)c2)CC1 (stereo not shown) [compound 77, 1-(3-bromophenyl)-3-(4-((dimethylamino)(phenyl)methyl)cyclohexyl)urea hydrochloride] | 88 | 0.078 | – | 93 | – | 84 | – | – | – | –
6 | CN(C)C(c1ccccc1)C1CCC(NC(=O)Nc2ccc(Br)cc2)CC1 (stereo not shown) [compound 81, 1-(4-bromophenyl)-3-(4-((dimethylamino)(phenyl)methyl)cyclohexyl)urea] | 95 | 0.033 | – | 97 | – | 97 | – | – | – | –
7 | COc1ccc(NC(=O)NC2CCC(C(c3ccccc3)N(C)C)CC2)cc1 (stereo not shown) [compound 82, 1-(4-((dimethylamino)(phenyl)methyl)cyclohexyl)-3-(4-methoxyphenyl)urea] | 92 | 0.19 | 0.12 | 98 | 0.11 | 98 | – | – | – | –
8 | CN(C)C(c1ccccc1)C1CCC(NCCc2c[nH]c3ccccc23)CC1 (stereo not shown) [compound 83, N-(2-(1H-indol-3-yl)ethyl)-4-((dimethylamino)(phenyl)methyl)-cyclohexanamine hydrochloride] | 95 | 0.007 | – | 100 | – | 93 | – | – | – | –
9 | CN(C)C(c1ccccc1)C1CCC(NCCc2ccccc2)CC1 (stereo not shown) [compound 84, 4-((dimethylamino)(phenyl)methyl)-N-phenethylcyclohexanamine hydrochloride] | 95 | 0.012 | – | 93 | – | 76 | – | – | – | –
10 | CN(C)C(c1ccccc1)C1CCC(NCCCc2ccccc2)CC1 (stereo not shown) [compound 85, 4-((dimethylamino)(phenyl)methyl)-N-(3-phenylpropyl)cyclohexanamine dihydrochloride] | 98 | 0.0028 | – | 103 | – | 77 | – | – | – | –
11 | COc1ccc(NC2CCC(C(c3ccccc3)N(C)C)CC2)cc1 (stereo not shown) [compound 89, N-(4-((dimethylamino)(phenyl)methyl)cyclohexyl)-4-methoxybenzenamine hydrochloride] | 95 | 0.059 | – | 85 | – | 73 | – | – | – | –
12 | COc1ccc(CNC2CCC(C(c3ccccc3)N(C)C)CC2)cc1 (stereo not shown) [compound 90, 4-((dimethylamino)(phenyl)methyl)-N-(4-methoxybenzyl)cyclohexanamine dihydrochloride] | 94 | 0.045 | – | 98 | – | 87 | – | – | – | –
13 | CN(C)C(c1ccccc1)C1CCC(Nc2ccccc2)CC1 (stereo not shown) [compound 92, N-(4-((dimethylamino)(phenyl)methyl)cyclohexyl)benzenamine hydrochloride] | 91 | 0.017 | – | 75 | – | 69 | – | – | – | –
14 | CCC(CC)C(=O)NC1CCC(C(c2ccccc2)N(C)C)CC1 (stereo not shown) [compound 93, N-(4-((dimethylamino)(phenyl)methyl)cyclohexyl)-2-ethylbutanamide hydrochloride] | – | 0.094 | – | – | 0.66 | 75 | 94 | 48 | – | –
15 | CC(=O)N(c1ccccc1)C1CCC(C(c2ccccc2)N(C)C)CC1 (stereo not shown) [compound 96, N-(4-((dimethylamino)(phenyl)methyl)cyclohexyl)-N-phenylacetamide hydrochloride] | – | 0.086 | 0.8 | – | 0.66 | 83 | 99 | 88 | – | –
16 | CCC(=O)N(CCCCc1ccccc1)C1CCC(C(c2ccccc2)N(C)C)CC1 (stereo not shown) [compound 97, N-(4-((dimethylamino)(phenyl)methyl)cyclohexyl)-N-(4-phenylbutyl)propionamide hydrochloride] | – | 0.0037 | 0.7 | – | 0.99 | 76 | 97 | 94 | – | –
17 | COc1ccc(N(C(C)=O)C2CCC(C(c3ccccc3)N(C)C)CC2)cc1 (stereo not shown) [compound 99, N-(4-((dimethylamino)(phenyl)methyl)cyclohexyl)-N-(4-methoxyphenyl)-acetamide hydrochloride] | – | 0.47 | – | – | 0.54 | 83 | 77 | 75 | – | –
18 | CC(=O)N(Cc1ccccc1)C1CCC(C(c2ccccc2)N(C)C)CC1 (stereo not shown) [compound 100, N-benzyl-N-(4-((dimethylamino)(phenyl)methyl)cyclohexyl)acetamide hydrochloride] | – | 0.0035 | 0.32 | – | 0.52 | 86 | 100 | 91 | – | –
19 | CCC(CC)C(=O)N(Cc1ccccc1)C1CCC(C(c2ccccc2)N(C)C)CC1 (stereo not shown) [compound 101, N-benzyl-N-(4-((dimethylamino)(phenyl)methyl)cyclohexyl)-2-ethylbutanamide hydrochloride] | – | 0.0023 | 0.67 | – | 0.88 | 81 | 101 | 86 | – | –
20 | CN(C)C(c1ccccc1)C1CCC(N(Cc2ccccc2)C(=O)c2ccc(F)cc2)CC1 (stereo not shown) [compound 103, N-benzyl-N-(4-((dimethylamino)(phenyl)methyl)cyclohexyl)-4-fluoro-benzamide hydrochloride] | – | 0.0088 | 0.4 | – | 0.56 | 93 | 99 | 87 | – | –
21 | CN(C)C(c1ccccc1)C1CCC(N(Cc2ccccc2)C(=O)c2ccccc2)CC1 (stereo not shown) [compound 104, N-benzyl-N-(4-((dimethylamino)(phenyl)methyl)cyclohexyl)benzamide hydrochloride] | – | 0.014 | 0.32 | – | 0.44 | 90 | 92 | 92 | – | –
22 | CCC(CC)C(=O)N(c1ccccc1)C1CCC(C(c2ccccc2)N(C)C)CC1 (stereo not shown) [compound 105, N-(4-((dimethylamino)(phenyl)methyl)cyclohexyl)-2-ethyl-N-phenylbutanamide hydrochloride] | – | 0.02 | – | – | – | 85 | 100 | 88 | – | –
23 | CN(C)C(c1ccccc1)C1CCC(NS(=O)(=O)c2ccc(Cl)cc2)CC1 (stereo not shown) [compound 106, 4-chloro-N-(4-((dimethylamino)(phenyl)methyl)cyclohexyl)benzene-sulfonamide hydrochloride] | – | – | – | 68 | – | 83 | – | – | 96 | 0.0037
24 | COc1ccc(S(=O)(=O)NC2CCC(C(c3ccccc3)N(C)C)CC2)cc1 (stereo not shown) [compound 107, N-(4-((dimethylamino)(phenyl)methyl)cyclohexyl)-4-methoxybenzene-sulfonamide hydrochloride] | – | – | – | 78 | – | 90 | – | – | 99 | 0.015
25 | CN(C)C(c1ccccc1)C1CCC(NS(=O)(=O)c2ccc(C(C)(C)C)cc2)CC1 (stereo not shown) [compound 108, 4-tert-butyl-N-(4-((dimethylamino)(phenyl)methyl)cyclohexyl)benzene-sulfonamide hydrochloride] | – | – | – | 75 | – | 75 | – | – | 92 | 0.022
